Experimental data from US20200095236A1, “ANTIBACTERIAL COMPOUNDS” (FORGE THERAPEUTICS, INC., priority 2017, published 2020).
Converted amounts (≈) assume the structure as drawn. Like-named read-outs stand apart in the source and are kept apart here. Values belong to the compound of their own block, whether it stands above or below them.

Experiments:
E. coli LpxC = E. coli LpxC (Escherichia coli, UniProt P0A725); test: LpxC Binding Assay (Rapid Fire MS assay); assay type: biochemical
E. coli = test: Bacterial susceptibility testing, MIC by broth microdilution (CLSI); assay type: cell-based; details: Escherichia coli, read-out: E. coli MIC
Method: (§1) Minimal inhibitory concentrations (MIC) were determined by the broth microdilution method in accordance with the Clinical and Laboratory Standards Institute (CLSI) guidelines. In brief, organism suspensions were adjusted to a 0.5 McFarland standard to yield a final inoculum between 3×10^5 and 7×10^5 colony-forming units (CFU)/mL. Drug dilutions and inocula were made in sterile, cation adjusted Mueller-Hinton Broth (Beckton Dickinson). An inoculum volume of 100 μL was added to wells containing 100 μL of broth with 2-fold serial dilutions of drug. All inoculated microdilution trays were incubated in ambient air at 35° C. for 18-24 h. Following incubation, the lowest concentration of the drug that prevented visible growth (OD600 nm<0.05) was recorded as the MIC. Performance of the assay was monitored by the use of laboratory quality-control strains and levofloxacin, a compound with a defined MIC spectrum, in accordance with CLSI guidelines.

K. pneumoniae = test: as above; assay type: cell-based; details: Klebsiella pneumoniae, read-out: K. pneumoniae MIC
Method: as §1

S. aureus = test: as above; assay type: cell-based; details: Staphylococcus aureus, read-out: S. aureus MIC
Method: as §1

[1] = system: TLR-4 activity of A. baumannii culture supernatants; test: TLR4 assay: TLR4 activity of A. baumannii culture supernatants in HEK-Blue-hTLR4 cells; assay type: cell-based; details: Acinetobacter baumannii, HEK-Blue hTLR4, read-out: % TLR-4 activity
Method: The TLR4 assay measures activity of diluted filter-sterilized A. baumannii culture supernatants. The assay was performed as described in Lin et al, Mbio, 2012. Briefly, A. baumannii was passaged to mid log-phase in the presence of Forge LpxC inhibitors. Culture supernatants were harvested, filter-sterilized and diluted 1:1000. TLR4 activity of the supernatants was tested using HEK-Blue-hTLR4 cells (Invivogen) that carry NF-kB and AP-1 driven SEAP (secreted embryonic alkaline phosphatase) reporter gene.
Exemplary TLR4 assay data (% TLR-4 activity) for compounds in embodiments of the disclosure.

[2] = broth microdilution, 35° C., 18-24 h

Sequence of E. coli LpxC (P0A725 whole entry): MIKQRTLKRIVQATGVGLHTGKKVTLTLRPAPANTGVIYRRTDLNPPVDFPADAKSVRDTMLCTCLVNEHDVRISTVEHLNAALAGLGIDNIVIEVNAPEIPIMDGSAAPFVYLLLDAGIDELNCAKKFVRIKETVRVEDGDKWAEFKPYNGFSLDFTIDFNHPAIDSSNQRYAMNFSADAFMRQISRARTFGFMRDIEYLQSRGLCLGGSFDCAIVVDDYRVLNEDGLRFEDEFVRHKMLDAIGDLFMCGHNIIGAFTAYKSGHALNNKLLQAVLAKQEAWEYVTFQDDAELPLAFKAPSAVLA

Compound: O=C(NC1CC(F)(F)C1)C(Cc1ccc(C#Cc2ccc(CN3CCOCC3)cc2)cc1)c1nc[nH]c(=O)c1O (stereo not drawn) [Compound 154, N-(3,3-difluorocyclobutyl)-2-(5-hydroxy-6-oxo-1,6-dihydropyrimidin-4-yl)-3-(4-((4-(morpholinomethyl)phenyl)ethynyl)phenyl) propanamide]
- IC50 (E. coli LpxC): 0.05 to 0.1 µM

Compound: C[C@@H]1CN(Cc2ccc(C#Cc3ccc(CC(CNCCF)c4nc[nH]c(=O)c4O)cc3)cc2)C[C@@H](C)O1 (stereo partly drawn) [Compound 218, 6-(1-(4-((4-(((2R,6R)-2,6-dimethylmorpholino)methyl)phenyl)ethynyl)phenyl)-3-((2-fluoroethyl)amino)propan-2-yl)-5-hydroxypyrimidin-4(3H)-one]
- IC50 (E. coli LpxC): 0.1 to 1 µM

Compound: O=c1[nH]cnc(CCc2ccc(C#Cc3ccc(CNC4CC(O)C4)cc3)cc2)c1O (stereo not drawn) [Compound 243, 5-hydroxy-6-(4-((4-(((3-hydroxycyclobutyl)amino)methyl)phenyl)ethynyl)phenethyl)pyrimidin-4(3H)-one]
- IC50 (E. coli LpxC): 0.01 to 0.05 µM

Compound: CO[C@H]1CCN(Cc2ccc(C#Cc3ccc(CC(C(=O)NCC(F)F)c4nc[nH]c(=O)c4O)cc3)cc2)C1 (stereo partly drawn) [Compound 105, N-(2,2-difluoroethyl)-2-(5-hydroxy-6-oxo-1,6-dihydropyrimidin-4-yl)-3-(4-((4-(((S)-3-methoxypyrrolidin-1-yl)methyl)phenyl)ethynyl)phenyl) propanamide]
- IC50 (E. coli LpxC): 0.05 to 0.1 µM

Compound: O=c1[nH]cnc(CCc2ccc(C#Cc3ccc(CN4CC(O)C4)cc3)c(F)c2)c1O [Compound 187, 6-(3-fluoro-4-((4-((3-hydroxyazetidin-1-yl)methyl)phenyl)ethynyl)phenethyl)-5-hydroxypyrimidin-4(3H)-one]
- MIC (E. coli; [2]): < 1 µg/mL
- MIC (K. pneumoniae; [2]): < 1 µg/mL
- MIC (S. aureus; [2]): > 32 µg/mL
- activity at 4 µg/mL [1]: 50 to 80%
- activity at 8 µg/mL [1]: 50 to 80%
- activity at 16 µg/mL [1]: 20 to 50%

Compound: Cc1nnc(NCC(Cc2ccc(C#Cc3ccc(CN4CCOCC4)cc3)cc2)c2nc[nH]c(=O)c2O)o1 (stereo not drawn) [Compound 87, 5-hydroxy-6-(1-((5-methyl-1,3,4-oxadiazol-2-yl)amino)-3-(4-((4-(morpholinomethyl)phenyl)ethynyl)phenyl)propan-2-yl)pyrimidin-4(3H)-one]
- IC50 (E. coli LpxC): 0.05 to 0.1 µM

Compound: N-(2,2-difluoroethyl)- 2-(5-hydroxy-6-oxo- 1,6-dihydropyrimidin- 4-yl)-3-(4-((4- (hydroxymethyl) phenyl)ethynyl)phenyl) propanamide [Compound 108]
- IC50 (E. coli LpxC): 0.01 to 0.05 µM

Compound: O=c1[nH]cnc(C(CNCCF)Cc2ccc(C#Cc3ccc(CNC4COC4)cc3)cc2)c1O (stereo not drawn) [Compound 207, 6-(1-((2-fluoroethyl)amino)-3-(4-((4-((oxetan-3-ylamino)methyl)phenyl)ethynyl)phenyl)propan-2-yl)-5-hydroxypyrimidin-4(3H)-one]
- IC50 (E. coli LpxC): 0.05 to 0.1 µM

Compound: O=c1[nH]cnc(C(CNCCF)Cc2ccc(C#Cc3ccc(CNC4CCOC4)cc3)cc2)c1O (stereo not drawn) [Compound 198, 6-(1-((2-fluoroethyl)amino)-3-(4-((4-(((tetrahydrofuran-3-yl)amino)methyl)phenyl)ethynyl)phenyl)propan-2-yl)-5-hydroxypyrimidin-4(3H)-one]
- IC50 (E. coli LpxC): 0.1 to 1 µM

Compound: COCCc1ccc(C#Cc2ccc(CC(C(=O)NCC(F)F)c3nc[nH]c(=O)c3O)cc2)cc1 (stereo not drawn) [Compound 114, N-(2,2-difluoroethyl)-2-(5-hydroxy-6-oxo-1,6-dihydropyrimidin-4-yl)-3-(4-((4-(2-methoxyethyl)phenyl)ethynyl)phenyl) propanamide]
- IC50 (E. coli LpxC): 0.05 to 0.1 µM

Compound: C[C@H]1CN(Cc2ccc(C#Cc3ccc(CC(CNCCF)c4nc[nH]c(=O)c4O)cc3)cc2)C[C@H](C)O1 (stereo partly drawn) [Compound 79, 6-(1-(4-((4-(((2S,6S)-2,6-dimethylmorpholino)methyl)phenyl)ethynyl)phenyl)-3-((2-fluoroethyl)amino)propan-2-yl)-5-hydroxypyrimidin-4(3H)-one]
- IC50 (E. coli LpxC): 0.1 to 1 µM

Compound: COC1CN(Cc2ccc(C#Cc3ccc(CC(C(=O)NCC(F)F)c4nc[nH]c(=O)c4O)cc3)cc2)C1 (stereo not drawn) [Compound 109, N-(2,2-difluoroethyl)-2-(5-hydroxy-6-oxo-1,6-dihydropyrimidin-4-yl)-3-(4-((4-((3-methoxyazetidin-1-yl)methyl)phenyl)ethynyl)phenyl) propanamide]
- IC50 (E. coli LpxC): 0.01 to 0.05 µM

Compound: CS(=O)(=O)NCC(Cc1ccc(C#Cc2ccc(CN3CCOCC3)cc2)cc1)c1nc[nH]c(=O)c1O (stereo not drawn) [Compound 80, N-(2-(5-hydroxy-6-oxo-1,6-dihydropyrimidin-4-yl)-3-(4-((4-(morpholinomethyl)phenyl)ethynyl)phenyl)propyl) methanesulfonamide]
- IC50 (E. coli LpxC): 0.1 to 1 µM

Compound: O=c1[nH]cnc(CCc2ccc(C#Cc3ccc(CN4CCOCC4)cc3)c(F)c2)c1O [Compound 98, 6-(3-fluoro-4-((4-(morpholinomethyl)phenyl)ethynyl)phenethyl)-5-hydroxypyrimidin-4(3H)-one]
- IC50 (E. coli LpxC): < 0.01 µM

Compound: CC(=O)NC[C@@H](Cc1ccc(C#Cc2ccc(CN3CCOCC3)cc2)cc1)c1nc[nH]c(=O)c1O [Compound 14, (R)-N-(2-(5-hydroxy-6-oxo-1,6-dihydropyrimidin-4-yl)-3-(4-((4-(morpholinomethyl)phenyl)ethynyl)phenyl)propyl)acetamide]
- MIC (E. coli; [2]): 1 to 8 µg/mL (≈ 2.06 to 16.4 µM)
- MIC (K. pneumoniae; [2]): 8 to 32 µg/mL (≈ 16.4 to 65.8 µM)
- MIC (S. aureus; [2]): > 32 µg/mL
- activity at 4 µg/mL [1]: > 80%
- activity at 8 µg/mL [1]: > 80%
- activity at 16 µg/mL [1]: > 80%

- MIC (E. coli; [2]): > 32 µg/mL
- MIC (K. pneumoniae; [2]): > 32 µg/mL
- MIC (S. aureus; [2]): > 32 µg/mL
Compound: O=C(CN1CCC1)NCC(Cc1ccc(C#Cc2ccc(CN3CCOCC3)cc2)cc1)c1nc[nH]c(=O)c1O (stereo not drawn) [Compound 46, 2-(azetidin-1-yl)-N-(2-(5-hydroxy-6-oxo-1,6-dihydropyrimidin-4-yl)-3-(4-((4-(morpholinomethyl)phenyl)ethynyl)phenyl)propyl)acetamide]

- MIC (E. coli; [2]): > 32 µg/mL
- MIC (K. pneumoniae; [2]): > 32 µg/mL
- MIC (S. aureus; [2]): > 32 µg/mL
Compound: O=C(Nc1ccn[nH]1)C(Cc1ccc(C#Cc2ccc(CN3CCOCC3)cc2)cc1)c1nc[nH]c(=O)c1O (stereo not drawn) [Compound 8, 2-(5-hydroxy-6-oxo-1,6-dihydropyrimidin-4-yl)-3-(4-((4-(morpholinomethyl)phenyl)ethynyl)phenyl)-N-(1H-pyrazol-5-yl)propanamide]

Compound: N#CC1CN(Cc2ccc(C#Cc3ccc(CC(CNCCF)c4nc[nH]c(=O)c4O)cc3)cc2)C1 (stereo not drawn) [Compound 209, 1-(4-((4-(3-((2-fluoroethyl)amino)-2-(5-hydroxy-6-oxo-1,6-dihydropyrimidin-4-yl)propyl)phenyl)ethynyl)benzyl) azetidine-3-carbonitrile]
- IC50 (E. coli LpxC): 0.01 to 0.05 µM

Compound: N#CC1CN(Cc2ccc(C#Cc3ccc(CC(C(=O)NCCF)c4nc[nH]c(=O)c4O)cc3)cc2)C1 (stereo not drawn) [Compound 165, 3-(4-((4-((3-cyanoazetidin-1-yl)methyl)phenyl)ethynyl)phenyl)-N-(2-fluoroethyl)-2-(5-hydroxy-6-oxo-1,6-dihydropyrimidin-4-yl)propanamide]
- IC50 (E. coli LpxC): < 0.01 µM

- MIC (E. coli; [2]): 1 to 8 µg/mL (≈ 2.01 to 16 µM)
- MIC (K. pneumoniae; [2]): 8 to 32 µg/mL (≈ 16 to 64.2 µM)
- MIC (S. aureus; [2]): > 32 µg/mL
Compound: C=CC(=O)NCC(Cc1ccc(C#Cc2ccc(CN3CCOCC3)cc2)cc1)c1nc[nH]c(=O)c1O (stereo not drawn) [Compound 20, N-(2-(5-hydroxy-6-oxo-1,6-dihydropyrimidin-4-yl)-3-(4-((4-(morpholinomethyl)phenyl)ethynyl)phenyl)propyl)acrylamide]

Compound: N[C@@H]1CCN(Cc2ccc(C#Cc3ccc(CC(CNC(=O)CF)c4nc[nH]c(=O)c4O)cc3)cc2)C1 (stereo partly drawn) [Compound 45, N-(3-(4-((4-(((R)-3-aminopyrrolidin-1-yl)methyl)phenyl)ethynyl)phenyl)-2-(5-hydroxy-6-oxo-1,6-dihydropyrimidin-4-yl)propyl)-2-fluoroacetamide]
- MIC (E. coli): > 32 µg/mL
- MIC (K. pneumoniae): > 32 µg/mL
- MIC (S. aureus): > 32 µg/mL

- MIC (E. coli; [2]): 8 to 32 µg/mL (≈ 15.9 to 63.7 µM)
- MIC (K. pneumoniae; [2]): > 32 µg/mL
- MIC (S. aureus; [2]): > 32 µg/mL
Compound: O=C(NCCO)C(Cc1ccc(C#Cc2ccc(CN3CCOCC3)cc2)cc1)c1nc[nH]c(=O)c1O (stereo not drawn) [Compound 7, 2-(5-hydroxy-6-oxo-1,6-dihydropyrimidin-4-yl)-N-(2-hydroxyethyl)-3-(4-((4-(morpholinomethyl)phenyl)ethynyl)phenyl) propanamide]

Compound: O=C(CF)NCC(Cc1ccc(C#Cc2ccc(CN3CC4CCC(C3)O4)cc2)cc1)c1nc[nH]c(=O)c1O (stereo not drawn) [Compound 13, N-(3-(4-((4-((8-oxa-3-azabicyclo[3.2.1]octan-3-yl)methyl)phenyl)ethynyl)phenyl)-2-(5-hydroxy-6-oxo-1,6-dihydropyrimidin-4-yl)propyl)-2-fluoroacetamide]
- MIC (E. coli): 1 to 8 µg/mL (≈ 1.88 to 15.1 µM)
- MIC (K. pneumoniae): 1 to 8 µg/mL (≈ 1.88 to 15.1 µM)
- MIC (S. aureus): > 32 µg/mL

Compound: O=C(CF)NCC(Cc1ccc(C#Cc2ccc(CCN3CCOCC3)cc2)cc1)c1nc[nH]c(=O)c1O (stereo not drawn) [Compound 16, 2-fluoro-N-(2-(5-hydroxy-6-oxo-1,6-dihydropyrimidin-4-yl)-3-(4-((4-(2-morpholinoethyl)phenyl)ethynyl)phenyl)propyl)acetamide]
- MIC (E. coli): 1 to 8 µg/mL (≈ 1.93 to 15.4 µM)
- MIC (K. pneumoniae): 8 to 32 µg/mL (≈ 15.4 to 61.7 µM)
- MIC (S. aureus): > 32 µg/mL
